Test results published in patent US20230067378A1, “COMPOSITIONS AND METHODS FOR THE TREATMENT OF ESTROGEN-DEPENDENT DISORDERS” (ObsEva S.A., priority 2018, published 2023).

Experiments:
β17-estradiol (E2) = assay: circulating E2 concentration, same clinical trial; assay type: in vivo, human; conditions: for median E2 level: Delayed-ABT cohort, Compound (VI) alone
Protocol: (§1) The experiments described in this example were conducted as part of a single-center, open-label, randomized, parallel-group clinical trial in 32 pre-menopausal women. Following screening assessments, and during the second half of the menstrual cycle, women received norethindrone (5 mg, three-times daily for 10 days) to synchronize menstrual cycles. After menstrual cycle synchronization, subjects were randomized with a 1:1 ratio to one of two treatment arms: (i) a cohort receiving once-daily administration of compound (VI) (200 mg per day, administered in the form of a choline salt) with concurrent onset of add-back therapy administration for 10 weeks (“Concurrent-ABT”), or (ii) a cohort receiving pre-treatment with compound (VI) (200 mg per day, administered in the form of a choline salt) for 4 weeks followed by combined daily administration of compound (VI) and add-back therapy (“Delayed-ABT”). The add-back therapy used in these experiments contained 1.0 mg of E2 and 0.5 mg of norethindrone acetate, and was administered to subjects once daily.
(§2) The main treatment outcomes and endpoints measured during these experiments included (i) a qualitative assessment of uterine blood loss, which was recorded on a daily basis throughout the study by characterizing each subject's bleeding pattern using one of the following four categories: “no bleeding,” “spotting” (light staining, dark blood, no sanitary protection needed or only panty liner), “bleeding” (1-4 completely soiled maxi sanitary towels or 1-8 soiled tampons or equivalent combination of the two), or “heavy bleeding” (>4 completely soiled maxi sanitary towels or >8 soiled tampons or equivalent combination of the two); (ii) a bi-weekly assessment of each subject's circulating E2 concentration; (iii) a bi-weekly assessment of each subject's circulating progesterone concentration (measured using a validated commercial chemiluminescence immunoassay method (Elecsys Progesterone III, Roche, Burgess Hill, UK)); (iv) the pharmacokinetic profile of compound (VI) and the add-back therapy; and (v) adverse events.

[1] = adverse events, same clinical trial; assay type: in vivo, human
Protocol: as §1, §2

[2] = Days 1-14, treatment A (Concurrent-ABT), N=16
[3] = Days 1-14, treatment B (Delayed-ABT), N=16
[4] = Days 15-28, Overall (A+B), N=32
[5] = Days 15-28, treatment A (Concurrent-ABT), N=16
[6] = Days 15-28, treatment B (Delayed-ABT), N=16
[7] = Days 29-42, Overall (A+B), N=29
[8] = Days 29-42, treatment A (Concurrent-ABT), N=14
[9] = Days 29-42, treatment B (Delayed-ABT), N=15
[10] = Days 43-56, Overall (A+B), N=29
[11] = Days 43-56, treatment A (Concurrent-ABT), N=14
[12] = Days 43-56, treatment B (Delayed-ABT), N=15
[13] = Days 57-70, Overall (A+B), N=29
[14] = Days 57-70, treatment A (Concurrent-ABT), N=14
[15] = Days 57-70, treatment B (Delayed-ABT), N=15
[16] = events of all reported adverse events, both cohorts

COc1cc(F)c(-n2c(=O)[nH]c3csc(C(=O)O)c3c2=O)cc1OCc1c(OC)ccc(F)c1F [Compound (VI), 3-[2-fluoro-5-(2,3-difluoro-6-methoxybenzyloxy)4-methoxyphenyl]-2,4-dioxo-1,2,3,4-tetrahydrothieno [3,4d]pyrimidine-5-carboxylic acid]
median E2 levels, window never left (β17-estradiol (E2); Concurrent-ABT cohort, whole study): 20 to 50 pg/mL
median E2 level (β17-estradiol (E2); by week 2): 3.7 pg/mL
median E2 level (β17-estradiol (E2); by week 4): 4.1 pg/mL
hot flushes, cohort of occurrence ([1]; Concurrent-ABT versus Delayed-ABT): exclusively occurred in the “Delayed-ABT” group
Hot Flush, subjects (%), Plasma Estradiol Level 20-50 pg/mL ([1]; Days 1-14, Overall (A+B), N=32): (0.0%)
Hot Flush, subjects (%), Plasma Estradiol Level <20 pg/mL ([1]; Days 1-14, Overall (A+B), N=32): (6.3%)
Hot Flush, subjects (%), Plasma Estradiol Level >50 pg/mL ([1]; Days 1-14, Overall (A+B), N=32): (0.0%)
Hot Flush, subjects (n), Plasma Estradiol Level 20-50 pg/mL ([1]; Days 1-14, Overall (A+B), N=32): 0
Hot Flush, subjects (n), Plasma Estradiol Level <20 pg/mL ([1]; Days 1-14, Overall (A+B), N=32): 2
Hot Flush, subjects (n), Plasma Estradiol Level >50 pg/mL ([1]; Days 1-14, Overall (A+B), N=32): 0
Hot Flush, subjects (%), Plasma Estradiol Level 20-50 pg/mL [1, 2]: (0.0%)
Hot Flush, subjects (%), Plasma Estradiol Level <20 pg/mL [1, 2]: (0.0%)
Hot Flush, subjects (%), Plasma Estradiol Level >50 pg/mL [1, 2]: (0.0%)
Hot Flush, subjects (n), Plasma Estradiol Level 20-50 pg/mL [1, 2]: 0
Hot Flush, subjects (n), Plasma Estradiol Level <20 pg/mL [1, 2]: 0
Hot Flush, subjects (n), Plasma Estradiol Level >50 pg/mL [1, 2]: 0
Hot Flush, subjects (%), Plasma Estradiol Level 20-50 pg/mL [1, 3]: (0.0%)
Hot Flush, subjects (%), Plasma Estradiol Level <20 pg/mL [1, 3]: (12.5%)
Hot Flush, subjects (%), Plasma Estradiol Level >50 pg/mL [1, 3]: (0.0%)
Hot Flush, subjects (n), Plasma Estradiol Level 20-50 pg/mL [1, 3]: 0
Hot Flush, subjects (n), Plasma Estradiol Level <20 pg/mL [1, 3]: 2
Hot Flush, subjects (n), Plasma Estradiol Level >50 pg/mL [1, 3]: 0
Hot Flush, subjects (%), Plasma Estradiol Level 20-50 pg/mL [1, 4]: (0.0%)
Hot Flush, subjects (%), Plasma Estradiol Level <20 pg/mL [1, 4]: (12.5%)
Hot Flush, subjects (%), Plasma Estradiol Level >50 pg/mL [1, 4]: (0.0%)
Hot Flush, subjects (n), Plasma Estradiol Level 20-50 pg/mL [1, 4]: 0
Hot Flush, subjects (n), Plasma Estradiol Level <20 pg/mL [1, 4]: 4
Hot Flush, subjects (n), Plasma Estradiol Level >50 pg/mL [1, 4]: 0
Hot Flush, subjects (%), Plasma Estradiol Level 20-50 pg/mL [1, 5]: (0.0%)
Hot Flush, subjects (%), Plasma Estradiol Level <20 pg/mL [1, 5]: (0.0%)
Hot Flush, subjects (%), Plasma Estradiol Level >50 pg/mL [1, 5]: (0.0%)
Hot Flush, subjects (n), Plasma Estradiol Level 20-50 pg/mL [1, 5]: 0
Hot Flush, subjects (n), Plasma Estradiol Level <20 pg/mL [1, 5]: 0
Hot Flush, subjects (n), Plasma Estradiol Level >50 pg/mL [1, 5]: 0
Hot Flush, subjects (%), Plasma Estradiol Level 20-50 pg/mL [1, 6]: (0.0%)
Hot Flush, subjects (%), Plasma Estradiol Level <20 pg/mL [1, 6]: (25.0%)
Hot Flush, subjects (%), Plasma Estradiol Level >50 pg/mL [1, 6]: (0.0%)
Hot Flush, subjects (n), Plasma Estradiol Level 20-50 pg/mL [1, 6]: 0
Hot Flush, subjects (n), Plasma Estradiol Level <20 pg/mL [1, 6]: 4
Hot Flush, subjects (n), Plasma Estradiol Level >50 pg/mL [1, 6]: 0
Hot Flush, subjects (%), Plasma Estradiol Level 20-50 pg/mL [1, 7]: (10.3%)
Hot Flush, subjects (%), Plasma Estradiol Level <20 pg/mL [1, 7]: (6.9%)
Hot Flush, subjects (%), Plasma Estradiol Level >50 pg/mL [1, 7]: (0.0%)
Hot Flush, subjects (n), Plasma Estradiol Level 20-50 pg/mL [1, 7]: 3
Hot Flush, subjects (n), Plasma Estradiol Level <20 pg/mL [1, 7]: 2
Hot Flush, subjects (n), Plasma Estradiol Level >50 pg/mL [1, 7]: 0
Hot Flush, subjects (%), Plasma Estradiol Level 20-50 pg/mL [1, 8]: (0.0%)
Hot Flush, subjects (%), Plasma Estradiol Level <20 pg/mL [1, 8]: (0.0%)
Hot Flush, subjects (%), Plasma Estradiol Level >50 pg/mL [1, 8]: (0.0%)
Hot Flush, subjects (n), Plasma Estradiol Level 20-50 pg/mL [1, 8]: 0
Hot Flush, subjects (n), Plasma Estradiol Level <20 pg/mL [1, 8]: 0
Hot Flush, subjects (n), Plasma Estradiol Level >50 pg/mL [1, 8]: 0
Hot Flush, subjects (%), Plasma Estradiol Level 20-50 pg/mL [1, 9]: (20.0%)
Hot Flush, subjects (%), Plasma Estradiol Level <20 pg/mL [1, 9]: (13.3%)
Hot Flush, subjects (%), Plasma Estradiol Level >50 pg/mL [1, 9]: (0.0%)
Hot Flush, subjects (n), Plasma Estradiol Level 20-50 pg/mL [1, 9]: 3
Hot Flush, subjects (n), Plasma Estradiol Level <20 pg/mL [1, 9]: 2
Hot Flush, subjects (n), Plasma Estradiol Level >50 pg/mL [1, 9]: 0
Hot Flush, subjects (%), Plasma Estradiol Level 20-50 pg/mL [1, 10]: (0.0%)
Hot Flush, subjects (%), Plasma Estradiol Level <20 pg/mL [1, 10]: (3.4%)
Hot Flush, subjects (%), Plasma Estradiol Level >50 pg/mL [1, 10]: (0.0%)
Hot Flush, subjects (n), Plasma Estradiol Level 20-50 pg/mL [1, 10]: 0
Hot Flush, subjects (n), Plasma Estradiol Level <20 pg/mL [1, 10]: 1
Hot Flush, subjects (n), Plasma Estradiol Level >50 pg/mL [1, 10]: 0
Hot Flush, subjects (%), Plasma Estradiol Level 20-50 pg/mL [1, 11]: (0.0%)
Hot Flush, subjects (%), Plasma Estradiol Level <20 pg/mL [1, 11]: (0.0%)
Hot Flush, subjects (%), Plasma Estradiol Level >50 pg/mL [1, 11]: (0.0%)
Hot Flush, subjects (n), Plasma Estradiol Level 20-50 pg/mL [1, 11]: 0
Hot Flush, subjects (n), Plasma Estradiol Level <20 pg/mL [1, 11]: 0
Hot Flush, subjects (n), Plasma Estradiol Level >50 pg/mL [1, 11]: 0
Hot Flush, subjects (%), Plasma Estradiol Level 20-50 pg/mL [1, 12]: (0.0%)
Hot Flush, subjects (%), Plasma Estradiol Level <20 pg/mL [1, 12]: (6.7%)
Hot Flush, subjects (%), Plasma Estradiol Level >50 pg/mL [1, 12]: (0.0%)
Hot Flush, subjects (n), Plasma Estradiol Level 20-50 pg/mL [1, 12]: 0
Hot Flush, subjects (n), Plasma Estradiol Level <20 pg/mL [1, 12]: 1
Hot Flush, subjects (n), Plasma Estradiol Level >50 pg/mL [1, 12]: 0
Hot Flush, subjects (%), Plasma Estradiol Level 20-50 pg/mL [1, 13]: (0.0%)
Hot Flush, subjects (%), Plasma Estradiol Level <20 pg/mL [1, 13]: (0.0%)
Hot Flush, subjects (%), Plasma Estradiol Level >50 pg/mL [1, 13]: (0.0%)
Hot Flush, subjects (n), Plasma Estradiol Level 20-50 pg/mL [1, 13]: 0
Hot Flush, subjects (n), Plasma Estradiol Level <20 pg/mL [1, 13]: 0
Hot Flush, subjects (n), Plasma Estradiol Level >50 pg/mL [1, 13]: 0
Hot Flush, subjects (%), Plasma Estradiol Level 20-50 pg/mL [1, 14]: (0.0%)
Hot Flush, subjects (%), Plasma Estradiol Level <20 pg/mL [1, 14]: (0.0%)
Hot Flush, subjects (%), Plasma Estradiol Level >50 pg/mL [1, 14]: (0.0%)
Hot Flush, subjects (n), Plasma Estradiol Level 20-50 pg/mL [1, 14]: 0
Hot Flush, subjects (n), Plasma Estradiol Level <20 pg/mL [1, 14]: 0
Hot Flush, subjects (n), Plasma Estradiol Level >50 pg/mL [1, 14]: 0
Hot Flush, subjects (%), Plasma Estradiol Level 20-50 pg/mL [1, 15]: (0.0%)
Hot Flush, subjects (%), Plasma Estradiol Level <20 pg/mL [1, 15]: (0.0%)
Hot Flush, subjects (%), Plasma Estradiol Level >50 pg/mL [1, 15]: (0.0%)
Hot Flush, subjects (n), Plasma Estradiol Level 20-50 pg/mL [1, 15]: 0
Hot Flush, subjects (n), Plasma Estradiol Level <20 pg/mL [1, 15]: 0
Hot Flush, subjects (n), Plasma Estradiol Level >50 pg/mL [1, 15]: 0
tolerability ([1]; both cohorts): well-tolerated
adverse events: headache [1, 16]: 38/166
adverse events: hot flushes [1, 16]: 19/166
